The text below walks through data of US10647725B2, “Anti-infective 2-aminothiophenes” (priority 2016, dated 2020).

For assay [1], the system named is Mtb H37Rv. The assay can be described thus: modified 96-well microplate Alamar blue assay (MABA), growth inhibition. Type of assay: cell-based, Mycobacterium tuberculosis. Conditions: for growth inhibition activity in words: SAR discussion; for MIC: Mycobacterium tuberculosis, H37RV, Mtb H37Rv. (Alamar Blue is a resazurin reagent that responds to reducing activity.)

For assay [2], the system named is Mtb H37Rv. The assay can be described thus: microbe, parasite or virus in culture. Format: cell-based. Conditions: Mycobacterium tuberculosis.
For assay [3], the system named is autoluminescent Mtb strain derived from Mtb H37Rv in THP-1 cells. The assay can be described thus: microbe, parasite or virus in culture. Format: cell-based. As to conditions: Mycobacterium tuberculosis; for IC50: THP-1, 72 h, read-out: IC50 intracellular activity.
The subject of assay [4] is mycolic acid biosynthesis in Mtb. The assay can be described thus: mycolic acid biosynthesis, [1,2-14C]acetate labeling, TLC and autoradiography. Format: cell-based, Mycobacterium tuberculosis. As to conditions: 0.4-4 μg/ml, 16 h.
The subject of assay [5] is Mtb H37Rv. The assay can be described thus: minimum bactericidal concentration (MBC), kill kinetics over 21 days. As to conditions: Mycobacterium tuberculosis, 504 h, aerobic, 7H9-Tw-OADC medium, 2-log kill in 21 days. Format: cell-based.
Assay [6] has as its system Mtb H37Rv mc26206. The assay can be described thus: microbe, parasite or virus in culture. As to conditions: Mycobacterium tuberculosis. Format: cell-based.
In assay [7] the test system is Mycobacterium abscessus. The assay can be described thus: MIC against Mycobacterium abscessus, OD590. As to conditions: Mycobacteroides abscessus.
Method: The activity of compounds against Mycobacterium abscessus and Mycobacterium avium was assessed under aerobic conditions by determining the minimum inhibitory concentration of compound (MIC). The strains were M. abscessus subsp. bollettii 103 and M. avium subsp. avium 2285 (S). The assay was based on measurement of growth in liquid medium of each strain where the readout is optical density (OD) or metabolic activity (using Alamar blue).
The MIC of compound against Mycobacterium abscessus and Mycobacterium avium was determined by measuring bacterial growth in the presence of test compounds. Compounds were prepared as 20-point two-fold serial dilutions in DMSO and diluted into 7H9-Tw-OADC medium in 96-well plates with a final DMSO concentration of 2%. The highest concentration of compound was 200 μM where compounds were soluble in DMSO at 10 mM. Each plate included assay controls for background (medium/DMSO only, no bacterial cells), zero growth (100 μM rifampicin) and maximum growth (DMSO only), as well as a rifampicin dose response curve.
For Mycobacterium abscessus, plates were inoculated with M. abscessus and incubated for 3 days at 37° C.; growth was measured by OD590. […] Rifampicin was included once in each run. […] If no point reached 75% inhibition, the MIC was reported as >maximum concentration tested.
The subject of assay [8] is THP-1 human monoocytic cell line. The assay can be described thus: cytotoxicity towards PMA-differentiated THP-1 cells (CellTiter-Glo). Type of assay: cell-based. In general terms: Cellular ATP, detected with luciferase, serves as a proxy for viable cell number.

≈ marks a conversion by molar mass, not a printed value. Entries after “also recorded” stand apart in the source; their conditions may differ. A value given as a limit tells only on which side of the number the result lay.

With `CCOC(=O)c1c(NC(=O)c2c(F)c(F)c(F)c(F)c2F)sc2c1CCN(C(=O)OC(C)(C)C)C2` [4{2,3,0}, 6-(Tert-butyl) 3-ethyl 2-(perfluorobenzamido)-4,7-dihydrothieno[2,3-c]pyridine-3,6(5H)-dicarboxylate], the “growth inhibition activity in words” value in assay [1] was “inactive”.
The IC90 is the point of the concentration-response curve where the effect stands at 90%. As a reminder, the MBC is the smallest concentration meeting the test's criterion for killing. Read a low MBC as more potent killing. In the case of `CCOC(=O)c1c(NC(=O)c2c(F)c(F)c(F)c(F)c2F)sc2c1CCN(CC)C2` [4{3,3,0}, ethyl 6-ethyl-2-(perfluorobenzamido)-4,5,6,7-tetrahydrothieno[2,3-c]pyridine-3-carboxylate], the MIC worked out at 0.23 µM (≈ 0.103 µg/mL) in assay [2], 0.4 µg/mL (≈ 0.892 µM) in assay [6] and 1.11 µg/mL (≈ 2.48 µM) in assay [7]. Also, the IC50 was found to be 5600 nM in assay [3] and 6.2 µM in assay [8] (Homo sapiens, 72 h, THP-1 macrophage-like cells, 3 days, read-out: IC50 (concentration causing a 50% loss in viability)). Also, the IC90 in assay [3] (THP-1, read-out: IC90 intracellular activity) was 9.75 µM. For the same compound, the “increase in potency compared to compound 4{4,3,0}” value in assay [1] was 40 fold. For the same compound, the “effect on synthesis of mycolic acids (TMM, TDM, mAG-attached mycolates)” value in assay [4] is reported as “strongly inhibits the biosynthesis of all forms of mycolic acid; also recorded: strongly inhibits the synthesis of all forms of mycolic acids”. This compound also returned a minimal bactericidal concentration (MBC) in assay [5] of under 5 µM. In assay [8] (times higher than the MIC), the “macrophage viability IC50 relative to the MIC” value turned out to be 27 times.
Regarding `CCOC(=O)c1c(NC(=O)c2cc(C(F)(F)F)cc(C(F)(F)F)c2)sc2c1CCN(CC)C2` [4{3,4,0}, Ethyl 2-(3,5-bis(trifluoromethyl)benzamido)-6-ethyl-4,5,6,7-tetrahydrothieno[2,3-c]pyridine-3-carboxylate], the MIC in assay [1] (read-out: MIC) was over 100 µg/mL.
On to `CCN1CCc2c(sc(NC(=O)c3cc(C(F)(F)F)cc(C(F)(F)F)c3)c2C(=O)NCc2ccc(C)cc2)C1` [4{3,4,3}, 2-(3,5-Bis(trifluoromethyl)benzamido)-6-ethyl-N-(4-methylbenzyl)-4,5,6,7-tetrahydrothieno[2,3-c]pyridine-3-carboxamide], for which the MIC in assay [1] is at least 200 µg/mL.
For the compound `CCOC(=O)c1c(NC(=O)c2ccccc2)sc2c1CCCC2` [4{4,2,0}], in assay [1], the “growth inhibition activity in words” value is given as “no activity”.
Take `CCOC(=O)c1cc(-c2ccccc2)sc1NC(=O)c1c(F)c(F)c(F)c(F)c1F` [4{5,3,0}, Ethyl 2-(perfluorobenzamido)-5-phenylthiophene-3-carboxylate]: the MIC in assay [1] (read-out: MIC) is over 100 µg/mL.
Take `NNC(=O)c1ccncc1` [INH, Isoniazid, reference compound]: the IC50 in assay [3] came to 240 nM.
